Data taken from patent publication US20230015823A1, “METHODS OF ADMINISTERING VOXELOTOR” (Global Blood Therapeutics, Inc., priority 2019, published 2023).
Read-outs that look alike come from different tables or passages of the source.

Test: Phase 1 study of a single oral dose of voxelotor in subjects with hepatic impairment: whole blood and plasma PK
Assay type: in vivo, human
Conditions: human; for half-life: read-out: t1/2, mean (converted); for Vd/F: read-out: Vz/F, GM (converted); for Tmax: read-out: tmax, median (converted)
Method: A Phase 1, open-label study was performed to characterize pharmacokinetics (PK) and safety of a single oral dose of voxelotor in subjects with hepatic impairment. The study was to assess the effects of mild, moderate, or severe hepatic impairment on the PK of a single oral dose of voxelotor, to evaluate the safety and tolerability of a single oral dose of voxelotor in subjects with mild, moderate, or severe hepatic impairment, as well as to establish potential dose adjustment guidance based upon the degree of hepatic insufficiency. […] This study was designed to assess the effects of mild, moderate, or severe hepatic impairment on the PK of a single oral dose of voxelotor. Routine safety assessments (AE monitoring, vital signs, physical examinations, clinical laboratory tests, and ECGs) were performed. Eligible subjects received a single oral dose of voxelotor 1500 mg (5×300-mg capsules) on Day 1 (for normal hepatic function, mild and moderate hepatic impairment). […] No food was allowed for at least 4 hours postdose. No water or any type of liquid was allowed for 1 hour before dosing through 1-hour postdose with the exception of water consumed for dosing. Adverse events and concomitant medication use were monitored throughout the study. Safety assessments, including physical examinations, vital signs assessments, 12-lead ECGs, and clinical laboratory tests, were performed. Whole blood and plasma concentrations of voxelotor were determined using validated assays. […] Louis, Mo.) and actual sampling times. The following PK parameters were determined. To assess the effect of hepatic impairment on the PK of voxelotor, a linear mixed-effect model was fitted to the log-transformed values of whole blood and plasma Cmax, AUCt, and AUCinf. The model included hepatic impairment group as a fixed effect and age and weight as covariates. Point estimates and 90% CIs for hepatic function group differences (mild, moderate, and severe hepatically-impaired subjects [test] versus the normal hepatic function subjects [control]) on the log scale were exponentiated to obtain estimates for GM ratios on the original scale. Voxelotor whole blood and plasma concentrations were measured using a validated liquid chromatography-mass spectrometry method. The lower limit of assay quantitation for voxelotor was 10.0 ng/mL for whole blood and 5.00 ng/mL in plasma.

[1] = plasma, po, 600 mg, plasma, severe hepatic impairment, 600 mg single oral dose
[2] = plasma, po, 1500 mg, plasma, mild hepatic impairment, 1500 mg single oral dose
[3] = plasma, po, 1500 mg, plasma, moderate hepatic impairment, 1500 mg single oral dose
[4] = plasma, po, 1500 mg, plasma, normal hepatic function, 1500 mg single oral dose

Work on CC(C)n1nccc1-c1ncccc1COc1cccc(O)c1C=O [voxelotor, 2-hydroxy-6-((2-(1-isopropyl-1H-pyrazol-5-yl)pyridin-3-yl)methoxy)benzaldehyde] yielded a half-life (in vivo, plasma, mild hepatic impairment, 1500 mg single oral dose) of 71.4 h, an AUC(0-inf) (plasma, oral, 600 mg, plasma, severe hepatic impairment (Test), 600 mg, adjusted for dose to 1500 mg, read-out: AUCinf, Geometric LS Mean) of 394 µg·h/mL and an AUC(0-t) (plasma, oral, 600 mg, plasma, severe hepatic impairment (Test), 600 mg, adjusted for dose to 1500 mg, read-out: AUCt, Geometric LS Mean) of 388 µg·h/mL. For the same compound, the Cmax (plasma, oral, 600 mg, plasma, severe hepatic impairment (Test), 600 mg, adjusted for dose to 1500 mg, read-out: Cmax, Geometric LS Mean) was 2900 ng/mL, the AUC(0-inf) (plasma, oral, 1500 mg, plasma, mild hepatic impairment (Test), 1500 mg, read-out: AUCinf, Geometric LS Mean) was 223 µg·h/mL and the AUC(0-t) (plasma, oral, 1500 mg, plasma, mild hepatic impairment (Test), 1500 mg, read-out: AUCt, Geometric LS Mean) was 221 µg·h/mL. For the same compound, the Cmax (plasma, oral, 1500 mg, plasma, mild hepatic impairment (Test), 1500 mg, read-out: Cmax, Geometric LS Mean) was 2360 ng/mL, the AUC(0-inf) (plasma, oral, 1500 mg, plasma, moderate hepatic impairment (Test), 1500 mg, read-out: AUCinf, Geometric LS Mean) was 240 µg·h/mL and the AUC(0-t) (plasma, oral, 1500 mg, plasma, moderate hepatic impairment (Test), 1500 mg, read-out: AUCt, Geometric LS Mean) was 245 µg·h/mL. It also gave a Cmax (plasma, oral, 1500 mg, plasma, moderate hepatic impairment (Test), 1500 mg, read-out: Cmax, Geometric LS Mean) of 3030 ng/mL, an AUC(0-inf) (plasma, oral, 1500 mg, plasma, normal hepatic function (Reference), 1500 mg, read-out: AUCinf, Geometric LS Mean) of 204 µg·h/mL and an AUC(0-t) (plasma, oral, 1500 mg, plasma, normal hepatic function (Reference), 1500 mg, read-out: AUCt, Geometric LS Mean) of 203 µg·h/mL. The Cmax (plasma, oral, 1500 mg, plasma, normal hepatic function (Reference), 1500 mg, read-out: Cmax, Geometric LS Mean) was 2010 ng/mL, the AUC(0-t) (plasma, po, 600 mg, plasma, severe hepatic impairment, 600 mg single oral dose, adjusted for dose to 1500 mg, read-out: AUC0-96, GM (converted)) was 177 µg·h/mL and the AUC(0-inf) (plasma, po, 600 mg, plasma, severe hepatic impairment, 600 mg single oral dose, adjusted for dose to 1500 mg, read-out: AUCinf, GM (converted)) was 393 µg·h/mL. It also gave an AUC(0-t) (plasma, po, 600 mg, plasma, severe hepatic impairment, 600 mg single oral dose, adjusted for dose to 1500 mg, read-out: AUCt, GM (converted)) of 386 µg·h/mL, a Cmax (plasma, po, 600 mg, plasma, severe hepatic impairment, 600 mg single oral dose, adjusted for dose to 1500 mg, read-out: Cmax, GM (converted)) of 2960 ng/mL and a Vd/F [1] of 592 L. It also gave a half-life [1] of 109 h, a Tmax [1] of 4 h and an AUC(0-t) (plasma, po, 1500 mg, plasma, mild hepatic impairment, 1500 mg single oral dose, read-out: AUC0-96, GM (converted)) of 143 µg·h/mL. For the same compound, the AUC(0-inf) (plasma, po, 1500 mg, plasma, mild hepatic impairment, 1500 mg single oral dose, read-out: AUCinf, GM (converted)) was 224 µg·h/mL, the AUC(0-t) (plasma, po, 1500 mg, plasma, mild hepatic impairment, 1500 mg single oral dose, read-out: AUCt, GM (converted)) was 223 µg·h/mL and the Cmax (plasma, po, 1500 mg, plasma, mild hepatic impairment, 1500 mg single oral dose, read-out: Cmax, GM (converted)) was 2390 ng/mL. For the same compound, the Vd/F [2] was 674 L, the Tmax [2] was 4 h and the AUC(0-t) (plasma, po, 1500 mg, plasma, moderate hepatic impairment, 1500 mg single oral dose, read-out: AUC0-96, GM (converted)) was 146 µg·h/mL. It also gave an AUC(0-inf) (plasma, po, 1500 mg, plasma, moderate hepatic impairment, 1500 mg single oral dose, read-out: AUCinf, GM (converted)) of 244 µg·h/mL, an AUC(0-t) (plasma, po, 1500 mg, plasma, moderate hepatic impairment, 1500 mg single oral dose, read-out: AUCt, GM (converted)) of 252 µg·h/mL and a Cmax (plasma, po, 1500 mg, plasma, moderate hepatic impairment, 1500 mg single oral dose, read-out: Cmax, GM (converted)) of 2910 ng/mL. For the same compound, the Vd/F [3] was 789 L, the half-life [3] was 90 h and the Tmax [3] was 5 h. It also gave an AUC(0-t) (plasma, po, 1500 mg, plasma, normal hepatic function, 1500 mg single oral dose, read-out: AUC0-96, GM (converted)) of 120 µg·h/mL, an AUC(0-inf) (plasma, po, 1500 mg, plasma, normal hepatic function, 1500 mg single oral dose, read-out: AUCinf, GM (converted)) of 200 µg·h/mL and an AUC(0-t) (plasma, po, 1500 mg, plasma, normal hepatic function, 1500 mg single oral dose, read-out: AUCt, GM (converted)) of 199 µg·h/mL. The Cmax (plasma, po, 1500 mg, plasma, normal hepatic function, 1500 mg single oral dose, read-out: Cmax, GM (converted)) was 2010 ng/mL, the Vd/F [4] was 865 L and the half-life [4] was 80.8 h. For the same compound, the Tmax [4] was 4 h, the AUC(0-inf) (whole blood, oral, 600 mg, whole blood, severe hepatic impairment (Test), 600 mg, adjusted for dose to 1500 mg, read-out: AUCinf, Geometric LS Mean) was 13600 µg·h/mL and the AUC(0-t) (whole blood, oral, 600 mg, whole blood, severe hepatic impairment (Test), 600 mg, adjusted for dose to 1500 mg, read-out: AUCt, Geometric LS Mean) was 13300 µg·h/mL. It also gave a Cmax (whole blood, oral, 600 mg, whole blood, severe hepatic impairment (Test), 600 mg, adjusted for dose to 1500 mg, read-out: Cmax, Geometric LS Mean) of 85400 ng/mL, an AUC(0-inf) (whole blood, oral, 1500 mg, whole blood, mild hepatic impairment (Test), 1500 mg, read-out: AUCinf, Geometric LS Mean) of 8160 µg·h/mL and an AUC(0-t) (whole blood, oral, 1500 mg, whole blood, mild hepatic impairment (Test), 1500 mg, read-out: AUCt, Geometric LS Mean) of 8120 µg·h/mL. It also gave a Cmax (whole blood, oral, 1500 mg, whole blood, mild hepatic impairment (Test), 1500 mg, read-out: Cmax, Geometric LS Mean) of 72900 ng/mL, an AUC(0-inf) (whole blood, oral, 1500 mg, whole blood, moderate hepatic impairment (Test), 1500 mg, read-out: AUCinf, Geometric LS Mean) of 8230 µg·h/mL and an AUC(0-t) (whole blood, oral, 1500 mg, whole blood, moderate hepatic impairment (Test), 1500 mg, read-out: AUCt, Geometric LS Mean) of 8190 µg·h/mL. The Cmax (whole blood, oral, 1500 mg, whole blood, moderate hepatic impairment (Test), 1500 mg, read-out: Cmax, Geometric LS Mean) was 64900 ng/mL, the AUC(0-inf) (whole blood, oral, 1500 mg, whole blood, normal hepatic function (Reference), 1500 mg, read-out: AUCinf, Geometric LS Mean) was 7150 µg·h/mL and the AUC(0-t) (whole blood, oral, 1500 mg, whole blood, normal hepatic function (Reference), 1500 mg, read-out: AUCt, Geometric LS Mean) was 7130 µg·h/mL. The Cmax (whole blood, oral, 1500 mg, whole blood, normal hepatic function (Reference), 1500 mg, read-out: Cmax, Geometric LS Mean) was 61400 ng/mL, the AUC(0-t) (whole blood, po, 600 mg, whole blood, severe hepatic impairment, 600 mg single oral dose, adjusted for dose to 1500 mg, read-out: AUC0-96, GM (converted)) was 6050 µg·h/mL and the AUC(0-inf) (whole blood, po, 600 mg, whole blood, severe hepatic impairment, 600 mg single oral dose, adjusted for dose to 1500 mg, read-out: AUCinf, GM (converted)) was 13600 µg·h/mL. The AUC(0-t) (whole blood, po, 600 mg, whole blood, severe hepatic impairment, 600 mg single oral dose, adjusted for dose to 1500 mg, read-out: AUCt, GM (converted)) was 13300 µg·h/mL, the Cmax (whole blood, po, 600 mg, whole blood, severe hepatic impairment, 600 mg single oral dose, adjusted for dose to 1500 mg, read-out: Cmax, GM (converted)) was 86600 ng/mL and the Vd/F (whole blood, po, 600 mg, whole blood, severe hepatic impairment, 600 mg single oral dose) was 17.6 L.
